Patent publication US8343959B2, “N-phenyl-(piperazinyl or homopiperazinyl)-benzenesulfonamide or benzenesulfonyl-phenyl-(piperazine or homopiperazine) compounds suitable for treating disorders that respond to modulation of the serotonin 5-HT6 receptor” (Abbott GmbH & Co. KG, priority 2009, dated 2013)
Structures can show the parent of a compound that is named as a salt.

Target: T1, h-5-HT6 receptor (Homo sapiens, UniProt P50406)
T1 construct: expressed in transfected cells
Assay: 5-HT6 receptor binding assay (displacement of [3H]-LSD)
Settings: membranes of HEK293 cells expressing h-5-HT6 receptor, 1 nM [3H]-LSD; read-out: Ki (5HT6)

T1 sequence (P50406 whole entry): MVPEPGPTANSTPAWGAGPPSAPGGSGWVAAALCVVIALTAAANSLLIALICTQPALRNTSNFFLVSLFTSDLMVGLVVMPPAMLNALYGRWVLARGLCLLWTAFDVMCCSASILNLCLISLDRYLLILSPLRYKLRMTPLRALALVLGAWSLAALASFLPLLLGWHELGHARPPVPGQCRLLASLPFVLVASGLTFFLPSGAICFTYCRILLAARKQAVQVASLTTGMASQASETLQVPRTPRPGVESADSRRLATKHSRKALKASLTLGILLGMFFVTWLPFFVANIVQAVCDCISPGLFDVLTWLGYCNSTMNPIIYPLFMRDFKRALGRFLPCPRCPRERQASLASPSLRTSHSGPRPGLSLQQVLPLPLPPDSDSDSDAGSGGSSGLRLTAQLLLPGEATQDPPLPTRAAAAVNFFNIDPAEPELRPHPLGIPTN

| Ki [µM] | Structure (SMILES) |
| --- | --- |
| < 0.01 | CCc1ccc(S(=O)(=O)Nc2cc(C)ccc2OC(F)F)cc1N1CCN(C)CC1 [Example 54, N-(2-Difluoromethoxy-5-methyl-phenyl)-4-ethyl-3-(4-methyl-piperazin-1-yl)-benzenesulfonamide] |
| < 0.01 | O=S(=O)(c1cccc(OC(F)F)c1)c1cccc(N2CCNCC2)c1 [Example 45, 1-[3-(3-Difluoromethoxy-benzenesulfonyl)-phenyl]-piperazine hydrochloride] |
| < 0.01 | Cc1ccc(OC(F)F)cc1NS(=O)(=O)c1ccc(C)c(N2CCNCC2)c1 [Example 58, N-(5-Difluoromethoxy-2-methyl-phenyl)-4-methyl-3-piperazin-1-yl-benzenesulfonamide hydrochloride] |
| < 0.5 | Cc1ccc(S(=O)(=O)N(c2ccccc2OC(F)F)C(C)C)cc1N1CCNCC1 [Example 39, N-(2-Difluoromethoxy-phenyl)-N-isopropyl-4-methyl-3-piperazin-1-yl-benzenesulfonamide hydrochloride] |
| < 0.5 | CN(c1ccccc1OC(F)F)S(=O)(=O)c1cccc(N2CCNCC2)c1 [Example 43, N-(2-Difluoromethoxy-phenyl)-N-methyl-3-piperazin-1-yl-benzenesulfonamide hydrochloride] |
| < 0.05 | COc1ccc(OC(F)F)c(NS(=O)(=O)c2ccc(C)c(N3CCNCC3)c2)c1 [Example 81, N-(2-Difluoromethoxy-5-methoxy-phenyl)-4-methyl-3-piperazin-1-yl-benzenesulfonamide hydrochloride] |
| < 0.01 | Cc1ccc(S(=O)(=O)Nc2cccc(OC(F)F)c2)cc1N1CCN(C)CC1 [Example 94, N-(3-Difluoromethoxy-phenyl)-4-methyl-3-(4-methyl-piperazin-1-yl)-benzenesulfonamide hydrochloride] |
| < 0.01 | COc1ccc(S(=O)(=O)Nc2ccc(OC(F)F)c(OC(F)F)c2)cc1N1CCN(C)CC1 [Example 51, N-(3,4-Bis-difluoromethoxy-phenyl)-4-methoxy-3-(4-methyl-piperazin-1-yl)-benzenesulfonamide hydrochloride] |
| < 0.01 | CCCN(c1ccc(OC)c(OC(F)F)c1)S(=O)(=O)c1ccc(OC)c(N2CCNCC2)c1 [Example 33, N-(3-Difluoromethoxy-4-methoxy-phenyl)-4-methoxy-3-piperazin-1-yl-N-propyl-benzenesulfonamide hydrochloride] |
